Laboratory results from patent publication US9492447B2, “Cannabinoid receptor modulators” (Arena Pharmaceuticals, Inc., priority 2011, dated 2016).
pEC50: −log10 of the molar value. Where “and” joins values, the source holds several entries; their conditions need not be identical. Identical values can stand only once.

How the values were obtained:
[1] = test system: rats following ligation of spinal nerves; settings: cited from earlier work
[2] = test system: carrageenan, capsaicin, and formalin models of inflammatory pain in rodents; settings: systemic delivery; cited from earlier work
[3] = test system: acute and chronic pain from chemical, mechanical, and thermal pain stimuli; settings: animal studies; cited from earlier work
[4] = Dynamic moisture-sorption (DMS) analysis; assay type: physicochemical
Method: A dynamic moisture-sorption (DMS) study was conducted using a dynamic moisture-sorption analyzer, VTI Corporation, SGA-100. The instrument was calibrated using polyvinyl pyrrolidone (PVP) and NaCl. Samples were prepared for DMS analysis by placing 5 mg to 20 mg of a sample in a tared sample holder. The sample was placed on the hang-down wire of the VTI balance. A drying step was run, typically at 40° C. and 0.5-1% RH for 1 h. The isotherm temperature is 25° C. Defined % RH holds typically ranged from 10% RH to 90% RH, with intervals of 10 to 20% RH. A % weight change smaller than 0.010% over 10 min, or up to 2 h, whichever occurred first, was required before continuing to the next % RH hold. The water content of the sample equilibrated as described above was determined at each % RH hold.

[5] = test system: STZ-induced PDPN model, diabetic and allodynic rats; test: Streptozotocin-induced painful diabetic peripheral neuropathy (PDPN) model; assay type: in vivo, rat; settings: 10 mg/kg orally in 0.5% methylcellulose; 1, 4 and 6 hours post-dosing; FIG. 13, 14
Method: Male Sprague-Dawley rats were injected intraperitoneally with 50 mg/kg of streptozotocin (STZ) in sodium citrate buffer. 10% sucrose water was provided ad libitum for the first 48 hours post-STZ followed by regular drinking water. Rats were monitored once weekly for blood glucose levels and body weights. Development of tactile allodynia over time was analyzed using Von Frey filaments and a 50% withdrawal threshold was determined using Dixon's up-down procedure. […] Tactile allodynia was evaluated at 1, 4 and 6 hours post-dosing.

[6] = test system: Monosodium iodoacetate-induced osteoarthritis rats; test: Combination of Compound 699 and morphine in MIA-induced osteoarthritis pain, Von Frey test; assay type: in vivo, rat; settings: Von Frey one hour post-dosing
human CB2 receptor = biological target: T1, human CB2 receptor (Homo sapiens, UniProt P34972); test: PathHunter β-arrestin assay, CB2 assay; assay type: cell-based
T1 construct: CB2 was cloned into the pCMV-PK vector; 93-0164 (CHO-K1 EA-Arrestin parental cell line)

[7] = test system: capsaicin-induced hyperalgesia and allodynia; settings: topical administration, humans; cited from earlier work
CB1 = settings: exogenous administration of a CB1 agonist; cited from earlier work
Chain of CB1 (P47746 whole entry): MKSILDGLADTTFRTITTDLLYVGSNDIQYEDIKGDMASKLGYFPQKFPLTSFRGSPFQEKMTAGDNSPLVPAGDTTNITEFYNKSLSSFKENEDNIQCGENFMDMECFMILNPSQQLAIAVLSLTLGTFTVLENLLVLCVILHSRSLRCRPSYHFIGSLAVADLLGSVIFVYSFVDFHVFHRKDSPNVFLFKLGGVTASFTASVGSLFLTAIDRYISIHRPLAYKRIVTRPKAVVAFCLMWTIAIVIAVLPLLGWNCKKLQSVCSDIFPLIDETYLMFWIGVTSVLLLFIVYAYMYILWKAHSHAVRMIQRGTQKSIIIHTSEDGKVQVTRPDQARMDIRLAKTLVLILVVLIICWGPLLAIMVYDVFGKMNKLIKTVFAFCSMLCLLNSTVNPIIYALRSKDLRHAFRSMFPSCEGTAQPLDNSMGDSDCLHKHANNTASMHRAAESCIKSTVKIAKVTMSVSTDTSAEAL

T1 sequence (P34972 whole entry): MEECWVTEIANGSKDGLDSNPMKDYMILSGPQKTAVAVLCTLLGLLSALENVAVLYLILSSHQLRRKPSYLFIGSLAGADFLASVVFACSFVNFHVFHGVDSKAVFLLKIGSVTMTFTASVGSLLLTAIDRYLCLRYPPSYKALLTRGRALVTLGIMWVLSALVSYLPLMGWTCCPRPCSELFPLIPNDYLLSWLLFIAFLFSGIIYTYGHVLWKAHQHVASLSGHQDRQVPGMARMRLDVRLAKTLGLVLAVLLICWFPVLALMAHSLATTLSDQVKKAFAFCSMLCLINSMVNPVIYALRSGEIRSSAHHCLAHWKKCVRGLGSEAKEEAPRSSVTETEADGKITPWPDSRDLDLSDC

COc1ccc(C(=O)c2c(C)n(CCN3CCOCC3)c3cc(I)ccc23)cc1 [AM630]
effect on the reversal of hypersensitivity by AM1241 ([1]; treatment with CB2-selective antagonist): inhibited

CN1CCCCC1Cn1cc(C(=O)c2cc([N+](=O)[O-])ccc2I)c2ccccc21 (stereo not drawn) [AM1241]
effect on tactile and thermal hypersensitivity ([1]; local (subcutaneous) or systemic administration): reverses tactile and thermal hypersensitivity
effect on induced hyperalgesia [2]: suppresses hyperalgesia

CCCCCCC(C)(C)c1ccc([C@@H]2C[C@H](O)CC[C@H]2CCCO)c(O)c1 [CP55,940]
effect against acute and chronic pain [3]: effective against acute and chronic pain

CC(C)(C)[C@@H](CO)NC(=O)c1nn(-c2c[n+]([O-])ccn2)c2c1C[C@@H]1C[C@H]21 [Compound 699 (Anhydrous Form), (1aS,5aS)-2-(4-Oxy-pyrazin-2-yl)-1a,2,5,5a-tetrahydro-1H-2,3-diaza-cyclopropa[a]pentalene-4-carboxylic Acid ((S)-1-Hydroxymethyl-2,2-dimethyl-propyl)-amide]
Weight (% Change) ([4]; adsorption, sample RH 29.94 %, 25.32): 0.151%
Weight (% Change) ([4]; adsorption, sample RH 49.86 %, 25.31): 0.282%
Weight (% Change) ([4]; adsorption, sample RH 69.77 %, 25.3): 0.482%
Weight (% Change) ([4]; adsorption, sample RH 79.70 %, 25.29): 0.581%
Weight (% Change) ([4]; adsorption, sample RH 89.72 %, 25.3): 0.762%
Weight (% Change) ([4]; desorption, sample RH 10.06 %, 25.29): 0.080%
Weight (% Change) ([4]; desorption, sample RH 29.99 %, 25.29): 0.181%
Weight (% Change) ([4]; desorption, sample RH 50.07 %, 25.3): 0.364%
Weight (% Change) ([4]; desorption, sample RH 70.11 %, 25.30): 0.526%
Weight (% Change) ([4]; sample RH […], 25.46, elapsed 46.6 min (after drying)): 0%

CC(C)(C)[C@@H](CO)NC(=O)c1nn(-c2c[n+]([O-])ccn2)c2c1C[C@@H]1C[C@H]21 [Compound 699, (1aS,5aS)-2-(4-Oxy-pyrazin-2-yl)-1a,2,5,5a-tetrahydro-1H-2,3-diaza-cyclopropa[a]pentalene-4-carboxylic Acid ((S)-1-Hydroxymethyl-2,2-dimethyl-propyl)-amide]
analgesic efficacy, tactile allodynia (50% withdrawal threshold) [5]: robust and sustained analgesic efficacy over 6 hours
paw withdrawal threshold (PWT), individual values ([6]; 1 mpk Compound 699 orally): 6.66 and 5.56 and 11.69 and 5.54 and 7.80 and 3.58
paw withdrawal threshold (PWT), individual values ([6]; 10 mpk Compound 699 orally (positive control)): 6.58 g and 7.8 g
paw withdrawal threshold (PWT), individual values ([6]; 10 mpk Compound 699 orally (positive control), in g): 15.00 (3×) and 11.69

O=C(NC1(C(F)(F)F)CCC1)c1nn(-c2c[n+]([O-])ccn2)c2c1C[C@@H]1C[C@H]21 [Compound 765, (1aS,5aS)-2-(4-Oxy-pyrazin-2-yl)-1a,2,5,5a-tetrahydro-1H-2,3-diaza-cyclopropa[a]pentalene-4-carboxylic Acid (1-Trifluoromethyl-cyclobutyl)-amide]
pEC50 (human CB2 receptor): 8.96

CC(C)(NC(=O)c1nn(-c2c[n+]([O-])ccn2)c2c1C[C@@H]1C[C@H]21)C(F)(F)F [Compound 919, (1aS,5aS)-2-(4-Oxy-pyrazin-2-yl)-1a,2,5,5a-tetrahydro-1H-2,3-diaza-cyclopropa[a]pentalene-4-carboxylic Acid (2,2,2-Trifluoro-1,1-dimethyl-ethyl)-amide]
analgesic efficacy, tactile allodynia (50% withdrawal threshold) [5]: robust and sustained analgesic efficacy over 6 hours
pEC50 (human CB2 receptor): 8.55

O=C(N[C@H]1c2ccccc2C[C@H]1O)c1nn(-c2c[n+]([O-])ccn2)c2c1C[C@@H]1C[C@H]21 [Compound 921, (1aS,5aS)-2-(4-Oxy-pyrazin-2-yl)-1a,2,5,5a-tetrahydro-1H-2,3-diaza-cyclopropa[a]pentalene-4-carboxylic Acid ((1S,2R)-2-Hydroxy-indan-1-yl)-amide]
pEC50 (human CB2 receptor): 8.66

O=C(NC1(C(F)(F)F)CCC1)c1nn(-c2cnccn2)c2c1C[C@@H]1C[C@H]21 [Compound 926, (1aS,5aS)-2-Pyrazin-2-yl-1a,2,5,5a-tetrahydro-1H-2,3-diaza-cyclopropa[a]pentalene-4-carboxylic Acid (1-Trifluoromethyl-cyclobutyl)-amide]
pEC50 (human CB2 receptor): 8.39

COc1ccc2c(c1)c(CCN1CCOCC1)c(C)n2C(=O)c1cccc(Cl)c1Cl [GW405833]
effect on hypersensitivity to mechanical stimuli ([1]; administered systemically): significantly reverses hypersensitivity to mechanical stimuli

CCCCCCC(C)(C)c1cc(O)c2c(c1)OC(C)(C)[C@@H]1CC=C(CO)C[C@@H]21 [HU-210]
effect on capsaicin-induced hyperalgesia and allodynia [7]: attenuates capsaicin-induced hyperalgesia and allodynia

CCCCCc1cc(O)c2c(c1)OC(C)(C)[C@@H]1CCC(C)=C[C@@H]21 [THC]
effect against acute and chronic pain [3]: effective against acute and chronic pain

Cc1c(C(=O)c2cccc3ccccc23)c2cccc3c2n1[C@H](CN1CCOCC1)CO3 [WIN 55212-2]
effect against acute and chronic pain [3]: effective against acute and chronic pain

CCCCC/C=C\C/C=C\C/C=C\C/C=C\CCCC(=O)NCCO [anandamide]
effect against acute and chronic pain [3]: effective against acute and chronic pain

CCCCC/C=C\C/C=C\C/C=C\C/C=C\CCCC(=O)NCCCl [arachidonyl-2-chloroethylamide]
effect on pain (CB1): reduces pain

CN1CC[C@]23c4c5ccc(O)c4O[C@H]2[C@@H](O)C=C[C@H]3[C@H]1C5 [morphine, reference compound]
paw withdrawal threshold (PWT), individual values ([6]; 1 mpk morphine intraperitoneally): 4.25 and 8.44 and 5.57 and 5.44 and 4.72 and 2.02
